pEC50, pKi: −log10 of the molar value.
Columns and labels:
[1] = target: Adenosine A2A receptor (Tag-lite Adenosine A2A labeled cells) (Homo sapiens (Human), UniProt P29274); assay: A2A Tag-lite HTRF assay (fluorescent ligand displacement); conditions: Red antagonist fluorescent ligand 12.5 nM, one-site competitive binding model, read-out: A2A_Ki
From the text: Example C. A2A Tag-Lite® HTRF Assay
The final concentration of DMSO was 1%.

[2] = target: human adenosine A2B receptor (Homo sapiens (Human), UniProt P29275); assay: Adenosine A2B Receptor Cyclic AMP GS Assay; assay type: cell-based; conditions: HEK-293 cells expressing human A2B; agonist NECA 12 nM; cAMP accumulation by FRET; read-out: A2B_cAMP_EC50
Chain of human adenosine A2B receptor (P29275 whole entry): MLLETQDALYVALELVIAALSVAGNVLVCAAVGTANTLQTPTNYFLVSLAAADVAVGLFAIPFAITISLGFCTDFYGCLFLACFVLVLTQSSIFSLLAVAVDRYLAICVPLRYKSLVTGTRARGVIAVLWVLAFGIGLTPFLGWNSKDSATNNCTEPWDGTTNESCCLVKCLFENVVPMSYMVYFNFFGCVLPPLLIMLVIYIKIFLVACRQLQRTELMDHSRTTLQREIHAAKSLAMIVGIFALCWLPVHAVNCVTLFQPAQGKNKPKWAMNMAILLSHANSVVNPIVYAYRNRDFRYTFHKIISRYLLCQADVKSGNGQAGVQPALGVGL
Procedure: Example B. Adenosine A2B Receptor Cyclic AMP GS Assay Stably transfected HEK-293 cells expressing the human adenosine A2B receptor (Perkin Elmer) were maintained in MEM culture medium with 10% FBS and 100 μg/ml Geneticin (Life Technologies). 18 to 24 hours prior to assay, geneticin was removed from culture. The cisbio cAMP-GS Dynamic kit utilizing the FRET (Fluorescence Resonance Energy Transfer) technology was used to measure cAMP accumulation in the cells. Compounds of the present disclosure at an appropriate concentration were mixed with 10000 cells/well in white 96 well half area plates (Perkin Elmer) for 30 min at room temperature gently shaking. Agonist, NECA (R&D Technologies) at 12 nM was added to each well for 60 min at room temperature gently shaking. Detection reagents, d2-labeled cAMP (acceptor) and anti-cAMP cryptate (donor) were added to each well for 60 min at RT gently shaking. Plates were read on Pherastar (BMG Labtech), fluorescence ratio 665/620 was calculated and EC50 determination was performed by fitting the curve of percent of control versus the log of the compound concentration using GraphPad Prism.

Chain of Adenosine A2A receptor (Tag-lite Adenosine A2A labeled cells) (P29274 whole entry): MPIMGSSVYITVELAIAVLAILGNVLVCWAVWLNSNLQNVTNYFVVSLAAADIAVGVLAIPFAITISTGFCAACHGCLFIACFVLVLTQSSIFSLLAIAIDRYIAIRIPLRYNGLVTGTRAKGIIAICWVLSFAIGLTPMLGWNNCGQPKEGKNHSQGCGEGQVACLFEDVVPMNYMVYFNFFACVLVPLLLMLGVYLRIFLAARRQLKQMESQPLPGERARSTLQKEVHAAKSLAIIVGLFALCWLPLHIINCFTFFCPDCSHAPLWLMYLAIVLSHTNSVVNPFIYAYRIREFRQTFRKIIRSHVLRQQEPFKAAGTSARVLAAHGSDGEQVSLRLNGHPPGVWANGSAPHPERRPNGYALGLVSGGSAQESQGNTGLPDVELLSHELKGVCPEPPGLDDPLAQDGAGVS

SMILES | pKi [1] | pEC50 [2]
CCCCCn1c2cc[nH]c2c(=O)n2c(C)nnc12 [Example 1, 3-Methyl-9-pentyl-6,9-dihydro-5H-pyrrolo[3,2-d][1,2,4]triazolo[4,3-a]pyrimidin-5-one] | 6.00 to 7.00 | 
CCCCCn1c2cc(-c3cnn(Cc4cncc(F)c4)c3)[nH]c2c(=O)n2c(C)nnc12 [Example 9, 7-(1-((5-Fluoropyridin-3-yl)methyl)-1H-pyrazol-4-yl)-3-methyl-9-pentyl-6,9-dihydro-5H-pyrrolo[3,2-d][1,2,4]triazolo[4,3-a]pyrimidin-5-one] | > 8.00 | 7.00 to 8.00
CCCCCn1c2cc(-c3cnn(Cc4cncc(C)c4)c3)[nH]c2c(=O)n2c(C)nnc12 [Example 3, 3-Methyl-7-(1-((5-methylpyridin-3-yl)methyl)-1H-pyrazol-4-yl)-9-pentyl-6,9-dihydro-5H-pyrrolo[3,2-d][1,2,4]triazolo[4,3-a]pyrimidin-5-one] | > 8.00 | > 8.00
CCCCCn1c2cc(-c3cnn(C4CN(c5nccc(NCCO)n5)C4)c3)[nH]c2c(=O)n2c(C)nnc12 [Example 22, 7-(1-(1-(4-(2-Hydroxyethylamino)pyrimidin-2-yl)azetidin-3-yl)-1H-pyrazol-4-yl)-3-methyl-9-pentyl-6,9-dihydro-5H-pyrrolo[3,2-d][1,2,4]triazolo[4,3-a]pyrimidin-5-one] | > 8.00 | 7.00 to 8.00
CCCCn1c2cc(-c3cnn(C4CN(c5nccc(N)n5)C4)c3)[nH]c2c(=O)n2c(C)nnc12 [Example 28, 7-(1-(1-(4-Aminopyrimidin-2-yl)azetidin-3-yl)-1H-pyrazol-4-yl)-9-butyl-3-methyl-6,9-dihydro-5H-pyrrolo[3,2-d][1,2,4]triazolo[4,3-a]pyrimidin-5-one] | > 8.00 | 7.00 to 8.00
CCCCCn1c2cc(-c3cnn(Cc4ccc5c(c4)CCN(C(=O)CN(C)C)C5)c3)[nH]c2c(=O)n2c(C)nnc12 [Example 30, 7-(1-((2-(2-(Dimethylamino)acetyl)-1,2,3,4-tetrahydroisoquinolin-6-yl)methyl)-1H-pyrazol-4-yl)-3-methyl-9-pentyl-6,9-dihydro-5H-pyrrolo[3,2-d][1,2,4]triazolo[4,3-a]pyrimidin-5-one] | > 8.00 | > 8.00
CCCCCn1c2c(C#N)c[nH]c2c(=O)n2c(C)nnc12 [Example 16, 3-Methyl-5-oxo-9-pentyl-6,9-dihydro-5H-pyrrolo[3,2-d][1,2,4]triazolo[4,3-a]pyrimidine-8-carbonitrile] | 6.00 to 7.00 | 
CCCCCn1c2c(-c3ccccc3)c[nH]c2c(=O)n2c(C)nnc12 [Example 15, 3-Methyl-9-pentyl-8-phenyl-6,9-dihydro-5H-pyrrolo[3,2-d][1,2,4]triazolo[4,3-a]pyrimidin-5-one] | 6.00 to 7.00 | 
CCCCCn1c2c(C)c[nH]c2c(=O)n2c(C)nnc12 [Example 14, 3,8-Dimethyl-9-pentyl-6,9-dihydro-5H-pyrrolo[3,2-d][1,2,4]triazolo[4,3-a]pyrimidin-5-one] | 6.00 to 7.00 | 
CCCCn1c2cc(-c3cnn(C4CN(c5ncccn5)C4)c3)[nH]c2c(=O)n2c(C)nnc12 [Example 24, 9-Butyl-3-methyl-7-(1-(1-(pyrimidin-2-yl)azetidin-3-yl)-1H-pyrazol-4-yl)-6,9-dihydro-5H-pyrrolo[3,2-d][1,2,4]triazolo[4,3-a]pyrimidin-5-one] | > 8.00 | 7.00 to 8.00
CCCCCn1c2cc(-c3cnn(Cc4cnc5cnn(C)c5c4)c3)[nH]c2c(=O)n2c(C)nnc12 [Example 7, 3-Methyl-7-(1-((1-methyl-1H-pyrazolo[4,3-b]pyridin-6-yl)methyl)-1H-pyrazol-4-yl)-9-pentyl-6,9-dihydro-5H-pyrrolo[3,2-d][1,2,4]triazolo[4,3-a]pyrimidin-5-one] | > 8.00 | 7.00 to 8.00
CCCCCn1c2cc(-c3cnn(C4CN(c5nccc(NC)n5)C4)c3)[nH]c2c(=O)n2c(C)nnc12 [Example 23, 3-Methyl-7-(1-(1-(4-(methylamino)pyrimidin-2-yl)azetidin-3-yl)-1H-pyrazol-4-yl)-9-pentyl-6,9-dihydro-5H-pyrrolo[3,2-d][1,2,4]triazolo[4,3-a]pyrimidin-5-one] | > 8.00 | 7.00 to 8.00
CCCCCn1c2cc(-c3cnn(Cc4cncc(Cl)c4)c3)[nH]c2c(=O)n2c(C)nnc12 [Example 2, 7-(1-((5-Chloropyridin-3-yl)methyl)-1H-pyrazol-4-yl)-3-methyl-9-pentyl-6,9-dihydro-5H-pyrrolo[3,2-d][1,2,4]triazolo[4,3-a]pyrimidin-5-one] | > 8.00 | 7.00 to 8.00
CCCCCn1c2cc(-c3ccc(S(=O)(=O)Nc4ccc(C)cc4)cc3)[nH]c2c(=O)n2c(C)nnc12 [Example 11, 4-(3-Methyl-5-oxo-9-pentyl-6,9-dihydro-5H-pyrrolo[3,2-d][1,2,4]triazolo[4,3-a]pyrimidin-7-yl)-N-p-tolylbenzenesulfonamide] | 7.00 to 8.00 | 
CCCCCn1c2c(Br)c[nH]c2c(=O)n2c(C)nnc12 [Example 13, 8-Bromo-3-methyl-9-pentyl-6,9-dihydro-5H-pyrrolo[3,2-d][1,2,4]triazolo[4,3-a]pyrimidin-5-one] | 7.00 to 8.00 | 
CCCCn1c2cc(-c3cnn(C4CN(c5nccc(OC)n5)C4)c3)[nH]c2c(=O)n2c(C)nnc12 [Example 27, 9-Butyl-7-(1-(1-(4-methoxypyrimidin-2-yl)azetidin-3-yl)-1H-pyrazol-4-yl)-3-methyl-6,9-dihydro-5H-pyrrolo[3,2-d][1,2,4]triazolo[4,3-a]pyrimidin-5-one] | > 8.00 | 7.00 to 8.00
CCCCn1c2cc(-c3cnn(C4CN(c5ncc(F)c(N)n5)C4)c3)[nH]c2c(=O)n2c(C)nnc12 [Example 29, 7-(1-(1-(4-Amino-5-fluoropyrimidin-2-yl)azetidin-3-yl)-1H-pyrazol-4-yl)-9-butyl-3-methyl-6,9-dihydro-5H-pyrrolo[3,2-d][1,2,4]triazolo[4,3-a]pyrimidin-5-one] | > 8.00 | 7.00 to 8.00
CCCCCn1c2cc(-c3cnn(Cc4cnc5cccnc5c4)c3)[nH]c2c(=O)n2c(C)nnc12 [Example 6, 7-(1-((1,5-Naphthyridin-3-yl)methyl)-1H-pyrazol-4-yl)-3-methyl-9-pentyl-6,9-dihydro-5H-pyrrolo[3,2-d][1,2,4]triazolo[4,3-a]pyrimidin-5-one] | > 8.00 | 7.00 to 8.00
CCCCCn1c2cc[nH]c2c(=O)n2c(C)cnc12 [Example 18, 7-Methyl-4-pentyl-1H-imidazo[1,2-a]pyrrolo[3,2-d]pyrimidin-9(4H)-one] | 7.00 to 8.00 | 
CCCCCn1c2cc(-c3cnn(Cc4ccn5ccnc5c4)c3)[nH]c2c(=O)n2c(C)nnc12 [Example 5, 7-(1-(Imidazo[1,2-a]pyridin-7-ylmethyl)-1H-pyrazol-4-yl)-3-methyl-9-pentyl-6,9-dihydro-5H-pyrrolo[3,2-d][1,2,4]triazolo[4,3-a]pyrimidin-5-one] | > 8.00 | 7.00 to 8.00
CCCCCn1c2cc(-c3cnn(C4CN(c5ncccn5)C4)c3)[nH]c2c(=O)n2c(C)nnc12 [Example 19, 3-Methyl-9-pentyl-7-(1-(1-(pyrimidin-2-yl)azetidin-3-yl)-1H-pyrazol-4-yl)-6,9-dihydro-5H-pyrrolo[3,2-d][1,2,4]triazolo[4,3-a]pyrimidin-5-one] | > 8.00 | 7.00 to 8.00
CCCCCn1c2cc(-c3cnn(Cc4cccnc4)c3)[nH]c2c(=O)n2c(C)nnc12 [Example 8, 3-Methyl-9-pentyl-7-(1-(pyridin-3-ylmethyl)-1H-pyrazol-4-yl)-6,9-dihydro-5H-pyrrolo[3,2-d][1,2,4]triazolo[4,3-a]pyrimidin-5-one] | > 8.00 | 7.00 to 8.00
CCCCn1c2cc(-c3cnn(C4CN(c5nccc(C)n5)C4)c3)[nH]c2c(=O)n2c(C)nnc12 [Example 26, 9-Butyl-3-methyl-7-(1-(1-(4-methylpyrimidin-2-yl)azetidin-3-yl)-1H-pyrazol-4-yl)-6,9-dihydro-5H-pyrrolo[3,2-d][1,2,4]triazolo[4,3-a]pyrimidin-5-one] | > 8.00 | 7.00 to 8.00
CCCCCn1c2cc(-c3cnn(Cc4ccccc4)c3)[nH]c2c(=O)n2c(C)nnc12 [Example 10, 7-(1-Benzyl-1H-pyrazol-4-yl)-3-methyl-9-pentyl-6,9-dihydro-5H-pyrrolo[3,2-d][1,2,4]triazolo[4,3-a]pyrimidin-5-one] | > 8.00 | 
CCCCCn1c2cc(-c3cnn(Cc4cnc5cccnc5c4)c3)[nH]c2c(=O)n2c(C(F)(F)F)nnc12 [Example 12, 7-(1-((1,5-Naphthyridin-3-yl)methyl)-1H-pyrazol-4-yl)-9-pentyl-3-(trifluoromethyl)-6,9-dihydro-5H-pyrrolo[3,2-d][1,2,4]triazolo[4,3-a]pyrimidin-5-one] | > 8.00 | > 8.00
CCCCCn1c2c(-c3cnn(Cc4ccccc4)c3)c[nH]c2c(=O)n2c(C)nnc12 [Example 17, 8-(1-Benzyl-1H-pyrazol-4-yl)-3-methyl-9-pentyl-6,9-dihydro-5H-pyrrolo[3,2-d][1,2,4]triazolo[4,3-a]pyrimidin-5-one] | 6.00 to 7.00 | 

From patent US11220510B2, “Pyrrole tricyclic compounds as A2A / A2B inhibitors” (Incyte Corporation, priority 2018, dated 2022)
